Assay results published in US20030027799A1, “Methods of treating cancer using a combination of drugs” (priority 2001, published 2003).

How the values were obtained:
[1] = system: various forms of cancers (e.g. solid tumours, adult leukemia and lymphomas); settings: Weitman 2000, Giles 2001, Gourdeau 2001; cited from earlier work
[2] = Dose escalation study of β-L-OddC and cisplatin in cancer patients: dose limiting toxicity, maximum tolerated dose; format: in vivo; settings: β-L-OddC in combination with cisplatin 50 mg/m^2, administered every four weeks
Text: The patients selected were adult patients with solid tumours that were refractory to standard therapies. […] They had adequate bone marrow, renal and hepatic function. There were 33 patients treated. Sixteen were male patients and seventeen were female. Twenty patients had colorectal cancer. Two patients had melanoma. One patient each had gastric cancer, islet cell cancer of the pancreas, non-small lung cancer (NSCLC), renal cancer, cervical cancer, breast cancer, ovarian cancer, squamous cell cancer of the pelvis, liver cancer, abdominal cancer and penile cancer. […] The terms LP and HP refer to lightly pre-treated and heavily pre-treated patient status. The term DLT refers to Dose limiting Toxicity.

## Nc1ccn([C@@H]2CO[C@H](CO)O2)c(=O)n1 [β-L-OddC, (−)-β-L-Dioxolane-Cytidine]
[1]
  activity in the treatment of various forms of cancers: potent activity
[2]
  recommended dose for heavily pre-treated patients: 4.8 mg/m^2
